# Laboratory results taken from PMC12040169 (PLOS Biology, 2025).
# Assay: in vitro
# Conditions: human, hela cells, % viability
row,SMILES,"viability at 28.5 h, 10 µM [%]"
1,CC(C)c1nc(CCN(C)C(=O)NCc2cc(-c3ccco3)on2)no1 [CBK307443],97.8
2,CNc1nc(Cn2ncc(N3CCCN(C)CC3)cc2=O)cs1 [CBK307446],92.8
3,COCCc1nc(C2CCN(C)CC2)n(Cc2ccccc2C)n1 [CBK307449],115
4,CCCNC(=O)c1ccc(C)c(NC(=O)N[C@@H]2C[C@@H](CO)N(C)C2)c1 [CBK307451],92.9
5,Cc1nc(O)cc(C2CCN(C(=O)c3scc4c3CCCC4)CC2)n1 [CBK307452],85.9
6,OC(c1cccs1)C1CCN(Cc2ccc(Cn3cccn3)cc2)CC1 (stereo not shown) [CBK307454],83.6
7,CC(=O)Nc1cccc(C(=O)NC2CC(=O)N(C3CCCCCC3)C2)c1 (stereo not shown) [CBK307455],102
8,Cc1n[nH]c2c1CN(Cc1nc(C)c(C)n1C)CC2 [CBK307456],84.7
9,COCCn1c(CO)nnc1[C@H]1C[C@@H](NC(=O)c2ncc(F)cc2F)C1 [CBK307458],106
10,CCCn1ccnc1CNc1nc(C)nc2c1c(C)nn2C [CBK307459],85
11,Cn1ccnc1CN1CCCC(CCC(=O)Nc2ccccc2F)C1 (stereo not shown) [CBK307462],92.1
12,O=C(NC(c1ccc2c(c1)CCO2)C1CC(O)C1)c1cccc(=O)[nH]1 (stereo not shown) [CBK307463],86.2
13,COCCC1CN(c2nc(N(C)C)nc3c2CCN(C(C)=O)C3)CCO1 (stereo not shown) [CBK307464],82.2
14,Cc1ccccc1N1CCC(CNC(=O)CCn2nc(C)c(C)c2C)C1 (stereo not shown) [CBK307465],87.7
15,CSc1nnc(CC2CCN(C(=O)c3cc(C)c(C)cc3C)CC2)n1C [CBK307467],99
16,CC(=O)N1CCOC(CNc2nc(C(C)(C)C)nc3c2cnn3C)C1 (stereo not shown) [CBK307469],89.4
17,CC(=O)c1cc(CN(C)C(C)c2ccncn2)cs1 (stereo not shown) [CBK307470],85.5
18,Cn1c(N2CC[C@H](O)C2)nc2cc(C(=O)NCc3ccsc3)ccc21 [CBK307471],87.5
19,Cc1cnc2c(Cl)c(C(=O)N3CCC4(CCCNC4)C3)nn2c1 (stereo not shown) [CBK307472],116
20,O=C(NCc1csc2c1CCCC2)N1CCC(CO)CC1 [CBK307476],98.9
21,Cn1ccnc1CNC(=O)N1CCCC(C(=O)c2cccc(Cl)c2)C1 (stereo not shown) [CBK307479],105
22,O=c1cc(N2CCCCC2)cnn1Cc1nccn1C1CC1 [CBK307484],89.6
23,Cn1cnnc1SCCNC(=O)N1CCCN(Cc2cccs2)CC1 [CBK307485],94

row,SMILES,"viability at 28.5 h, 10 µM [%]"
1,O=C(c1ccc2c(c1)CCCO2)N(Cc1ccccn1)CC1CCCO1 (stereo not shown) [CBK307488],84.9
2,CN(C)Cc1nc(C(=O)N2CCn3nc(C(O)C4CC4)cc3C2)cs1 (stereo not shown) [CBK307489],101
3,Cn1nnc2cc(NC(=O)NCc3csc(N4CCOCC4)n3)ccc21 [CBK307492],94.2
4,CCN(C)C(=O)c1cn2cc(-c3cc(C)oc3C)n(C)c(=O)c2n1 [CBK307494],94.9
5,COCc1nc(NCCn2c(C)cc(C)nc2=O)cc(C2CCOC2)n1 (stereo not shown) [CBK307495],92.6
6,Cc1nc(C)n(CCCNc2cc(C(C)C)nc3ccnn23)n1 [CBK307497],79.7
7,O=C(NCc1csc2c1CCCC2)N1CC(c2ccccn2)C1 [CBK307499],100
8,CCOc1ccc(Cl)cc1CN(C)C(=O)NCC(C)CN(C)C (stereo not shown) [CBK307500],121
9,CN(C)c1nc2c(c(-c3cncc(N)c3)n1)CCCC2 [CBK307503],105
10,COc1ccccc1CC(=O)N(Cc1cccnc1)C[C@@H]1CCC(=O)N1 [CBK307504],95.7
11,COc1c(C)cc(-c2nc(C)nc(C)c2C)cc1C [CBK307506],96.7
12,CNC(=O)CCc1ccccc1NC(=O)NCc1cnc(SC)n1C [CBK307507],101
13,Cc1nc2cc(OCc3nc(C(=O)NCC4CCOC4)co3)ccc2s1 (stereo not shown) [CBK307508],86.1
14,COCCNc1nc2c(c(N3CCSCC3)n1)CCNCC2 [CBK307510],111
15,Cn1ncc2c(NCCN3CCOC3=O)nc(C(C)(C)C)nc21 [CBK307511],75.3
16,CC(=O)c1ccc(-c2cc(F)cc3c2OC(CN)C3)s1 (stereo not shown) [CBK307513],54.2
17,CC(NC(=O)C1(Cn2ccnc2)CC1)c1nc(-c2ccccn2)no1 (stereo not shown) [CBK307514],107
18,CCN(CCO)C(=O)c1cccc(-c2cnn(C(F)F)c2C)c1 [CBK307519],95.5
19,CC(C)OCC(=O)NC1CCCc2nc(N3CCC(CO)CC3)ncc21 (stereo not shown) [CBK307520],94.5
20,Cc1ccc(CN2CCC(CN(C)C(=O)c3cc4sccc4[nH]3)CC2)o1 [CBK307522],102
21,CSCCN(C)c1nc2c(c(=O)[nH]1)Cc1ccccc1OC2 [CBK307523],100
22,COc1ccc(CN2CC=CC2C(=O)O)cc1Cn1cncn1 (stereo not shown) [CBK307524],76.2
23,CCCCSc1nc(N)cc(N2CCC(N3CCCC3=O)CC2)n1 [CBK307525],108

row,SMILES,"viability at 28.5 h, 10 µM [%]"
1,CN(C)S(=O)(=O)NC1CC(C)(C)Cc2c1cnn2-c1ccccc1 (stereo not shown) [CBK307533],94.5
2,O=C1CCCN1CCC1CCN(c2nccc(CCC(F)(F)F)n2)CC1 [CBK307534],90.1
3,CCC1C=CCN1S(=O)(=O)c1cccc(C(=O)NCc2cnn(C)c2)c1 (stereo not shown) [CBK307536],96.4
4,CCC(=O)Oc1ccc(C(=O)N2CCN(c3ccccc3F)CC2)cc1 [CBK307538],103
5,Cc1ccc(OC2(C(=O)N3CCCC3c3nccs3)CCNCC2)cc1 (stereo not shown) [CBK307539],94.6
6,CCSc1nc(=O)c2c(n1C)NC(=O)CC2c1ccccc1 (stereo not shown) [CBK307541],107
7,CCSc1nc(=O)c2c(n1C)NC(=O)CC2c1ccc(OC)cc1 (stereo not shown) [CBK307542],89.9
8,Cc1n[nH]cc1CN(C)c1cc([C@H]2C[C@@H](N)C2)nc(C2CC2)n1 [CBK307544],110
9,CCc1ccc(NC(=O)CN2CCN(c3ccccc3F)CC2)cc1 [CBK307549],112
10,CC1CCc2c(sc(NC(=O)CCC(=O)O)c2C(=O)N2CCOCC2)C1 (stereo not shown) [CBK307550],94.1
11,CCCn1cnnc1C(C)NC(=O)N(C)Cc1nc2cccc(C)c2[nH]1 (stereo not shown) [CBK307551],112
12,Cc1nc(NCCc2cnc(=O)n(C)c2O)cc(C2CCOC2)n1 (stereo not shown) [CBK307559],93.2
13,Cc1ccccc1-c1noc(CNC(Cn2ccnc2)C(C)C)n1 (stereo not shown) [CBK307560],89.1
14,Cc1c(C)n(Cc2ccco2)c2ncnc(NCCCC(=O)O)c12 [CBK307562],90.7
15,Cc1c(C)n(Cc2ccco2)c2ncnc(NCC(=O)O)c12 [CBK307563],101
16,CCOC(=O)c1cn([C@H]2CC[C@H](O)CC2)cc(Oc2ccccc2)c1=O [CBK307565],108
17,COCCn1c(=O)c2c(nc3oc(C(C)(C)C)cn32)n(C)c1=O [CBK307566],96.7
18,CSCCC(Nc1ncnc2c1c(C)c(C)n2Cc1ccco1)C(=O)O (stereo not shown) [CBK307568],92.3
19,O=C(Nc1ccc2c(c1)nc1n2CCOC1)C1CCCCC1 [CBK307570],90
20,Cc1cc(=O)n2c3c(cc(S(=O)(=O)NC4CC4)cc13)CCC2 [CBK307572],87
21,Cc1cc(C)n(CC(C)C(=O)Nc2cccnc2)n1 (stereo not shown) [CBK307573],97.5
22,Cc1nnc(CCNC2CCN(c3ncnc4c(C)csc34)CC2)s1 [CBK307574],84.9
23,COc1ccc(CNC(=O)c2cc(S(=O)(=O)N3CCOCC3)cs2)cc1 [CBK307577],95.7

row,SMILES,"viability at 28.5 h, 10 µM [%]"
1,COc1ccc(CNC(=O)c2cc(S(=O)(=O)N(C)C)cs2)cc1 [CBK307579],87.1
2,CCN1CCN(C(=O)CCNC(=O)c2cccc(OC)c2)CC1 [CBK307580],96.6
3,CCCN1CC(NS(=O)(=O)c2cc(OC)c(Cl)cc2OC)CC1=O (stereo not shown) [CBK307581],96.7
4,CCn1c(CC2CCN(C(=O)CCn3cc(C)cn3)CC2)nn(C)c1=O [CBK307584],89.7
5,CCOC(=O)c1c(NC(=O)NCc2cccnc2)sc2c1CCC2 [CBK307585],87.3
6,COc1ccc(CNC(=O)c2cc(S(=O)(=O)N(C)C)ccc2OC)cc1 [CBK307586],85.1
7,CCN(CCn1cccn1)c1nc2nonc2nc1NC1CCCC1 [CBK307589],106
8,Cn1c(=O)oc2ccc(C(=O)NCCN3CCCCC3CO)cc21 (stereo not shown) [CBK307594],78
9,Cc1cc(=O)n2c3c(cc(S(=O)(=O)NCC4CCCO4)cc13)CC2 (stereo not shown) [CBK307595],103
10,O=C(NCCCn1ccnc1)C1CCN(C(=O)c2cccc(Cl)c2)CC1 [CBK307596],116
11,CN(Cc1nnc(-c2ccc(C(C)(C)C)cc2)o1)C(=O)C1CCCO1 (stereo not shown) [CBK307597],106
12,O=C(O)C1(Oc2ccc3ncccc3c2)CCN(Cc2ccoc2)CC1 [CBK307598],90.9
13,CN1CCOCC(CNC(=O)c2ccc(-c3ccccc3CO)cc2)C1 (stereo not shown) [CBK307601],91.1
14,OC(Cc1ccccc1)c1cc2n(n1)CCN(Cc1ccsc1)C2 (stereo not shown) [CBK307603],89.5
15,CCOC(=O)c1cnc2ccc(Cl)cc2c1NC [CBK307605],71.1
16,CC(C(=O)Nc1ccc(S(N)(=O)=O)cc1)N1Cc2ccccc2C1=O (stereo not shown) [CBK307607],82.8
17,COc1ccc2c(c1)CCN(C(=O)C1CCc3nn(C)c(=O)n3C1)C2 (stereo not shown) [CBK307613],93.3
18,COCCNC(=O)c1cc2n(n1)C(C(F)(F)F)CC(c1cccs1)N2 (stereo not shown) [CBK307614],113
19,COc1ccccc1CCNC(=O)N1CCC(Oc2cccnc2)CC1 [CBK307615],106
20,Cc1cc(C)n(-c2ccc3nnc(CCC(=O)Nc4nccs4)n3n2)n1 [CBK307617],96.8
21,Cc1nc(O)cc(C2CCN(C(=O)c3csc4c3CCCC4)CC2)n1 [CBK307618],104
22,Cc1ccc2c(c1)OC(C)(C)CC2NS(C)(=O)=O (stereo not shown) [CBK307620],81.5
